Source: PubChem BioAssay (NCI)
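The compound was tested at five concentrations on cells cultured in 96-well plates, with a 48-hour exposure period. GI50 marks 50% less growth. TGI denotes the concentration required for complete inhibition of growth.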

Experiments:
Assay in all cases: growth of human tumour cells (NCI), 48 h
HOP-62 NSCLC = system: HOP-62 NSCLC
HS 578T breast = system: HS 578T breast
HT29 colon = system: HT29 colon
IGROV1 ovarian = system: IGROV1 ovarian
MDA-MB-435 = system: MDA-MB-435
NCI-H23 lung = system: NCI-H23 lung
NCI-H522 lung = system: NCI-H522 lung
RPMI-8226 leukemia = system: RPMI-8226 leukemia
SK-MEL-5 melanoma = system: SK-MEL-5 melanoma
SK-MEL-2 melanoma = system: SK-MEL-2 melanoma

| SMILES | TGI (HOP-62 NSCLC) | TGI (HS 578T breast) | TGI (HT29 colon) | TGI (IGROV1 ovarian) | TGI (MDA-MB-435) | TGI (NCI-H23 lung) | TGI (NCI-H522 lung) | TGI (RPMI-8226 leukemia) | TGI (SK-MEL-5 melanoma) | GI50 (HOP-62 NSCLC) | GI50 (HS 578T breast) | GI50 (HT29 colon) | GI50 (IGROV1 ovarian) | GI50 (MDA-MB-435) | GI50 (NCI-H522 lung) | GI50 (SK-MEL-2 melanoma) | TGI (SK-MEL-2 melanoma) | GI50 (SK-MEL-5 melanoma) | GI50 (NCI-H23 lung) | GI50 (RPMI-8226 leukemia) |
| --- | --- | --- | --- | --- | --- | --- | --- | --- | --- | --- | --- | --- | --- | --- | --- | --- | --- | --- | --- | --- |
| COc1cc2oc(-c3ccc(O)cc3)cc(=O)c2c(OC)c1OC | > 100 µM | > 100 µM | > 100 µM | > 100 µM | > 100 µM | > 100 µM | > 100 µM | > 100 µM | > 100 µM | – | – | – | – | – | – | – | – | – | – | – |
| Fc1cc(F)c(COc2cc(Cn3cnc4c(Cl)nc(Cl)nc43)ccc2C23CC4CC(CC(C4)C2)C3)cc1F | 31.2 µM | 60.9 µM | 62.5 µM | 27.5 µM | 33 µM | – | 5.56 µM | – | 3.53 µM | 17.4 µM | 22.9 µM | 23.6 µM | 13.2 µM | 17.3 µM | 2.29 µM | 21 µM | 56.1 µM | 1.68 µM | – | – |
| COC(=O)C(=O)C(C(=O)C(=O)Nc1ccccc1C(N)=O)c1nc2ccc(Cl)cc2[nH]c1=O (centres undefined) | – | > 100 µM | > 100 µM | – | > 100 µM | > 100 µM | – | > 100 µM | > 100 µM | – | – | – | – | – | – | – | > 100 µM | – | – | – |
| CCOC1=NC(=O)CC(c2ccccc2)S1 (centres undefined) | – | – | > 100 µM | > 100 µM | – | – | – | > 100 µM | > 100 µM | – | – | – | – | – | – | – | > 100 µM | – | – | – |
| CC1=C(C)CC2(CCCCC2=O)S(=O)C1 (centres undefined) | > 100 µM | – | > 100 µM | > 100 µM | – | > 100 µM | – | > 100 µM | > 100 µM | – | – | – | – | – | – | – | > 100 µM | – | – | – |
| Cn1cc(C(=O)c2ccccc2)ccc1=O | > 100 µM | – | > 100 µM | > 100 µM | – | > 100 µM | > 100 µM | > 100 µM | > 100 µM | – | – | – | – | – | – | – | > 100 µM | – | – | – |
| Cc1ccc(Nc2nc3c(s2)C(=O)c2ccccc2C3=O)c(C)c1 | 30.5 µM | – | 48.3 µM | 33.1 µM | – | 25.6 µM | 4.66 µM | 45.6 µM | 28.2 µM | – | – | – | – | – | – | – | 28.2 µM | – | – | – |
| Cc1cn2c(/C=C3/C(=O)N(C)c4ccccc43)c(C)nc2s1 | > 100 µM | 50.4 µM | > 100 µM | 70.3 µM | – | > 100 µM | 30.2 µM | > 100 µM | 25.5 µM | 30 µM | 9.59 µM | 3.58 µM | 6.98 µM | – | 5.04 µM | 5.33 µM | 58.3 µM | 4.71 µM | 16.2 µM | 17 µM |
| CN(C)CC/C(=N\Nc1c(Cl)cccc1Cl)c1ccccc1 | > 100 µM | – | 29.3 µM | 92.4 µM | – | 33.4 µM | 33.9 µM | 46.8 µM | 29.5 µM | – | – | – | – | – | – | – | 34.1 µM | – | – | – |
| Cc1ccc(N(C(=O)CC(=O)NN)C(=O)c2ccccc2Cl)cc1 | > 100 µM | – | > 100 µM | > 100 µM | – | > 100 µM | > 100 µM | > 100 µM | – | – | – | – | – | – | – | – | – | – | – | – |
| COc1cc(OC)c(/C=C/C(=O)c2c(OC)cccc2OC)c(OC)c1 | > 100 µM | > 36.3 µM | > 100 µM | – | 1.09 µM | > 27.6 µM | – | > 100 µM | 2.49 µM | 0.742 µM | 1.28 µM | 0.398 µM | 0.497 µM | 0.263 µM | – | 0.807 µM | > 100 µM | 0.348 µM | 1.46 µM | 0.666 µM |
